≈ marks a conversion by molar mass, not a printed value.
These compounds were tested on Mycobacterium tuberculosis (assay: Antituberculosis activity against Mycobacterium tuberculosis H37Rv by agar dilution method).
Type: functional
For `CN1CC2=C(NC(=S)NC2c2ccc(N(C)C)cc2)/C(=C/c2ccc(N(C)C)cc2)C1` (stereo not given), the MIC was 57.7 µM (≈ 25 µg/mL). For `COc1ccc(OC)c(/C=C2\CN(C)CC3=C2NC(=S)NC3c2cc(OC)ccc2OC)c1` (stereo not given), the MIC was 53.5 µM (≈ 25 µg/mL). With `COc1ccc(/C=C2\CN(C)CC3=C2NC(=S)NC3c2ccc(OC)c(OC)c2)cc1OC` (stereo not given) the MIC was 53.5 µM (≈ 25 µg/mL). Work on `Cc1ccccc1/C=C1\CN(C)CC2=C1NC(=S)NC2c1ccccc1C` (stereo not given) yielded an MIC of 66.6 µM (≈ 25 µg/mL). With `CC(C)c1ccc(/C=C2\CN(C)CC3=C2NC(=S)NC3c2ccc(C(C)C)cc2)cc1` (stereo not given) the MIC was 57.9 µM (≈ 25 µg/mL). Compound `CN1CC2=C(N=C(S)NC2c2ccccc2)/C(=C/c2ccccc2)C1` (stereo not given) has an MIC of 71.9 µM (≈ 25 µg/mL). Compound `CN1CC2=C(NC(=S)NC2c2cccc3ccccc23)/C(=C/c2cccc3ccccc23)C1` (stereo not given) has an MIC of 55.9 µM (≈ 25 µg/mL). Work on `CN1CC2=C(N=C(S)NC2c2ccccc2Cl)/C(=C/c2ccccc2Cl)C1` (stereo not given) yielded an MIC of 30 µM (≈ 12.5 µg/mL). In the case of `CN1CC2=C(NC(=S)NC2c2ccc(Cl)cc2Cl)/C(=C/c2ccc(Cl)cc2Cl)C1` (stereo not given), the MIC is reported as 12.9 µM (≈ 6.26 µg/mL). `CN1CC2=C(N=C(S)NC2c2ccc(Cl)cc2)/C(=C/c2ccc(Cl)cc2)C1` (stereo not given) was tested, and the MIC was 30 µM (≈ 12.5 µg/mL). With `CN1CC2=C(NC(=S)NC2c2cccc(F)c2)/C(=C/c2cccc(F)c2)C1` (stereo not given) the MIC was 16.3 µM (≈ 6.25 µg/mL). Work on `CN1CC2=C(NC(=S)NC2c2ccc(F)cc2)/C(=C/c2ccc(F)cc2)C1` (stereo not given) yielded an MIC of 32.6 µM (≈ 12.5 µg/mL). `CN1CC2=C(NC(=S)NC2c2cccc(Br)c2)/C(=C/c2cccc(Br)c2)C1` (stereo not given) was tested, and the MIC was 24.7 µM (≈ 12.5 µg/mL). `COc1ccccc1/C=C1\CN(C)CC2=C1NC(=S)NC2c1ccccc1OC` (stereo not given) was tested, and the MIC was 61.4 µM (≈ 25 µg/mL). For `CN1CC2=C(NC(=S)NC2c2c(Cl)cccc2Cl)/C(=C/c2c(Cl)cccc2Cl)C1` (stereo not given), the MIC was 5.6 µM (≈ 2.72 µg/mL). `CN1CC2=C(NC(=S)NC2c2ccc(Br)cc2)/C(=C/c2ccc(Br)cc2)C1` (stereo not given) showed an MIC of 24.7 µM (≈ 12.5 µg/mL). Work on `CN1CC2=C(NC(=S)NC2c2ccc3ccccc3c2)/C(=C/c2ccc3ccccc3c2)C1` (stereo not given) yielded an MIC of 55.9 µM (≈ 25 µg/mL). `CN(C)c1ccc(/C=C2\CN(Cc3ccccc3)CC3=C2NC(=S)NC3c2ccc(N(C)C)cc2)cc1` (stereo not given) gave an MIC of 49.1 µM (≈ 25 µg/mL). `COc1ccc(OC)c(/C=C2\CN(Cc3ccccc3)CC3=C2NC(=S)NC3c2cc(OC)ccc2OC)c1` (stereo not given) was tested, and the MIC was 46 µM (≈ 25 µg/mL). `COc1ccc(/C=C2\CN(Cc3ccccc3)CC3=C2NC(=S)NC3c2ccc(OC)c(OC)c2)cc1OC` (stereo not given) gave an MIC of 46 µM (≈ 25 µg/mL). Work on `COc1ccc(/C=C2\CN(Cc3ccccc3)CC3=C2NC(=S)NC3c2ccc(OC)cc2)cc1` (stereo not given) yielded an MIC of 51.7 µM (≈ 25 µg/mL). Work on `Cc1ccccc1/C=C1\CN(Cc2ccccc2)CC2=C1NC(=S)NC2c1ccccc1C` (stereo not given) yielded an MIC of 55.4 µM (≈ 25 µg/mL). With `CC(C)c1ccc(/C=C2\CN(Cc3ccccc3)CC3=C2NC(=S)NC3c2ccc(C(C)C)cc2)cc1` (stereo not given) the MIC was 24.6 µM (≈ 12.5 µg/mL). In the case of `Cc1ccc(/C=C2\CN(Cc3ccccc3)CC3=C2NC(=S)NC3c2ccc(C)cc2)cc1` (stereo not given), the MIC is reported as 55.4 µM (≈ 25 µg/mL). With `S=C1NC2=C(CN(Cc3ccccc3)C/C2=C\c2ccccc2)C(c2ccccc2)N1` (stereo not given) the MIC was 59 µM (≈ 25 µg/mL). Work on `S=C1NC2=C(CN(Cc3ccccc3)C/C2=C\c2cccc3ccccc23)C(c2cccc3ccccc23)N1` (stereo not given) yielded an MIC of 47.7 µM (≈ 25 µg/mL). `S=C1NC2=C(CN(Cc3ccccc3)C/C2=C\c2ccccc2Cl)C(c2ccccc2Cl)N1` (stereo not given) showed an MIC of 25.4 µM (≈ 12.5 µg/mL). In the case of `S=C1NC2=C(CN(Cc3ccccc3)C/C2=C\c2ccc(Cl)cc2Cl)C(c2ccc(Cl)cc2Cl)N1` (stereo not given), the MIC is reported as 2.8 µM (≈ 1.57 µg/mL). In the case of `S=C1NC2=C(CN(Cc3ccccc3)C/C2=C\c2ccc(Cl)cc2)C(c2ccc(Cl)cc2)N1` (stereo not given), the MIC is reported as 25.4 µM (≈ 12.5 µg/mL). With `Fc1cccc(/C=C2\CN(Cc3ccccc3)CC3=C2NC(=S)NC3c2cccc(F)c2)c1` (stereo not given) the MIC was 6.8 µM (≈ 3.13 µg/mL). In the case of `Fc1ccc(/C=C2\CN(Cc3ccccc3)CC3=C2NC(=S)NC3c2ccc(F)cc2)cc1` (stereo not given), the MIC is reported as 3.4 µM (≈ 1.56 µg/mL). Compound `S=C1NC2=C(CN(Cc3ccccc3)C/C2=C\c2ccccc2Br)C(c2ccccc2Br)N1` (stereo not given) has an MIC of 21.5 µM (≈ 12.5 µg/mL). With `COc1cc(/C=C2\CN(Cc3ccccc3)CC3=C2NC(=S)NC3c2cc(OC)c(OC)c(OC)c2)cc(OC)c1OC` (stereo not given) the MIC was 41.4 µM (≈ 25 µg/mL). With `Cc1ccc(/C=C2\CN(C)CC3=C2N=C(S)NC3c2ccc(C)cc2)cc1` (stereo not given) the MIC was 66.6 µM (≈ 25 µg/mL). `CN1CC2=C(N=C(S)NC2c2cccs2)/C(=C/c2cccs2)C1` (stereo not given) showed an MIC of 69.5 µM (≈ 25 µg/mL). Work on `COc1ccc(/C=C2\CN(C)CC3=C2N=C(S)NC3c2ccc(OC)cc2)cc1` (stereo not given) yielded an MIC of 61.4 µM (≈ 25 µg/mL). `CC[C@@H](CO)NCCN[C@@H](CC)CO` [ETHAMBUTOL] showed an MIC of 7.6 µM (≈ 1.55 µg/mL). For `NNC(=O)c1ccncc1` [ISONIAZID], the MIC was 0.4 µM (≈ 0.0549 µg/mL). `CO[C@H]1/C=C/O[C@@]2(C)Oc3c(C)c(O)c4c(O)c(c(/C=N/N5CCN(C)CC5)c(O)c4c3C2=O)NC(=O)/C(C)=C\C=C\[C@H](C)[C@H](O)[C@@H](C)[C@@H](O)[C@@H](C)[C@H](OC(C)=O)[C@@H]1C` [RIFAMPIN] showed an MIC of 0.1 µM (≈ 0.0823 µg/mL).

What follows are compounds tested on Mycobacterium tuberculosis (assay: Ratio of MIC for ethambutol to compound for Mycobacterium tuberculosis H37Rv).
Type: functional
Work on `CN1CC2=C(NC(=S)NC2c2c(Cl)cccc2Cl)/C(=C/c2c(Cl)cccc2Cl)C1` (stereo not given) yielded a Ratio of 1.4. For `S=C1NC2=C(CN(Cc3ccccc3)C/C2=C\c2ccc(Cl)cc2Cl)C(c2ccc(Cl)cc2Cl)N1` (stereo not given), the Ratio was 2.7. `Fc1cccc(/C=C2\CN(Cc3ccccc3)CC3=C2NC(=S)NC3c2cccc(F)c2)c1` (stereo not given) was tested, and the Ratio was 1.1. `Fc1ccc(/C=C2\CN(Cc3ccccc3)CC3=C2NC(=S)NC3c2ccc(F)cc2)cc1` (stereo not given) gave a Ratio of 2.2.

Each compound was assayed on Mycobacterium tuberculosis (assay: Ratio of MIC for ciprofloxacin to compound for Mycobacterium tuberculosis H37Rv).
Type: functional
Work on `S=C1NC2=C(CN(Cc3ccccc3)C/C2=C\c2ccc(Cl)cc2Cl)C(c2ccc(Cl)cc2Cl)N1` (stereo not given) yielded a Ratio of 1.7. Compound `Fc1ccc(/C=C2\CN(Cc3ccccc3)CC3=C2NC(=S)NC3c2ccc(F)cc2)cc1` (stereo not given) has a Ratio of 1.4.

Source: ChEMBL document CHEMBL1770066, “A green expedient synthesis of pyridopyrimidine-2-thiones and their antitubercular activity” (2011)
